Tested on: Black donor endothelial cells (HUVEC)
Assay: NO release from HUVEC of Black donors, measured with a porphyrinic nanosensor
Type: cell-based, Human
Conditions: for magnitude of the increase in NO release, Black versus White donor cells: chronic ACE inhibitor treatment followed by nebivolol 1 μM, FIG. 2 and FIG. 4
Description: All measurements presented were recorded in vitro using a sensitive porphyrinic probe, as previously described. Malinski T, Taha Z., Nature. 1992; 358:676-678; Malinski T, Czuchajowski L., Methods in Nitric Oxide Research. 1996:319-339. NO release was measured directly from HUVEC. HUVEC cells from Black and White donors were grown in Ham's F12K medium with 2 mM L-glutamine adjusted to contain 1.5 g/L sodium bicarbonate and supplemented with 0.1 mg/ml heparin and 0.03-0.05 mg/ml endothelial cell growth supplement (ECGS) +10% fetal bovine serum. The HUVEC cells were kept in an atmosphere of elevated CO2 concentration (5%). Nebivolol was obtained from Mylan Laboratories (Morgantown, W.Va.).
All measurements of endothelial NO release were conducted in Hank's balance solution at 37° C. Cell wells were transferred to a Faraday cage and a porphyrinic sensor (diameter 0.5 mm) was positioned at a distance of 5±2 μm from the surface of the endothelial cells using an inverted microscope (Leica Microsystems, Wetzlar, Germany) and a computer-assisted micromanipulator. The sensor operated with a three-electrode system: nanosensor (working electrode), saturated calomel electrode (reference electrode) and platinum wire (counter electrode, 0.5 mm diameter). The three electrodes were connected to a potentiostat/galvanostat PAR273. The baseline was stabilized after about 20 seconds. The test compounds were injected with a nanoinjector onto the surface of the cells following solubilization in buffer. Cells were incubated with the test compounds for a 24-hour period. The compounds were then washed out of the system before being immediately reintroduced in order to evaluate the consequences of chronic treatment on NO release from the cells. For additive experiments, cells were incubated with ACE inhibitor for 24 hours, the inhibitor was washed out of the system, nebivolol was added and the NO release measured. The current proportional to the NO concentration was measured with the sensor, which operated in amperometric mode at a constant potential of 0.63V. Data were acquired with the use of an IBM computer with custom software and amperograms (current vs. time curves) were recorded with a Guniry FAS1 Femtostat (Warminster, Pa.). Maximum release of NO was produced using a calcium agonist (1 μM). By increasing cytoplasmic levels of calcium, the ion can bind to calmodulin. The Ca2+-calmodulin complex is a cofactor for endothelial NO synthase, along with FAD, FMN, Heme and BH4.
Nanosensors were prepared from carbon fibers. The size of the tip of carbon fiber was reduced from 6 μm to less than 1 μm by temperature controlled burning. The sensors were sensitized to NO by deposition of electrically conductive polymeric porphyrin and covered with a thin layer of Nafion. […]

SMILES	enhancement of the ability of nebivolol to increase NO release (Black donor cells, chronic (24 h) enalapril 5 and 10 μM, then nebivolol 1 μM, FIG. 3)	magnitude of the increase in NO release, Black versus White donor cells	effect on the ability of nebivolol to increase NO release (Black donor cells, chronic (24 h) ramiprilat 1, 5 and 10 μM, washed out, then nebivolol 1 μM, FIG. 1)
CCOC(=O)[C@H](CCc1ccccc1)N[C@@H](C)C(=O)N1CCC[C@H]1C(=O)O [enalapril]	significantly enhanced	greater in endothelial cells from Blacks than Whites	
C[C@H](N[C@@H](CCc1ccccc1)C(=O)O)C(=O)N1[C@H](C(=O)O)C[C@@H]2CCC[C@@H]21 [ramiprilat]		greater in endothelial cells from Black donors	modest but significant effects

— patent publication US7838552B2, “Compositions comprising nebivolol” (Forest Laboratories Holdings Limited, priority 2004, dated 2010)
